Measured values published in the supplement of paper PMC11208160.

Test: recombinant UMI read abundance after kanamycin selection (control-corrected) (log10(CPM+1)); higher = more efficient recombination; extreme values may be limits of the assay; sequences stand for … in AGTGCAGAGAAAATCGGCCAGTTTTCTCTGCCTGCAGTCCGCATGCCGTGGGACCCCTTGGGTTCTAACCTGTTGCCTAGATTTATGCAGCGGACTGCCTTTCTCCCAAAGTGATAAACCGG…AGGTTGGTTTCACT; site = the 11-nt donor
Method in brief: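 For the IS621 bridge recombinase, a pooled Escherichia coli screen tested donor and donor-binding-loop pairs. Cells received the pair library together with a target plasmid encoding a fixed target and T7-inducible recombinase, then went onto IPTG (0.07 mM) plus kanamycin or unselected plates in duplicate. After PCR across the donor–target junction and sequencing, recombinant UMI counts were normalized to CPM, averaged, and scaled by control-derived factors. Each value is given as log10(CPM+1).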
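Also: IS621 bridge recombinase in Escherichia coli cells against a fixed T5 target plasmid.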

| Sequence | recombinant UMI read abundance (log10) |
| --- | --- |
| CCTAATCCATGGACCGGTTTTCCCGGTAATCCGTATTTGGC (site CCTAATACTGC) | 0 |
| CCTAATCCATGGACCGGTTTTCCCGGTAATCCGTATTTGGC (site CCTAATCCTGC) | 0 |
| CCTAATCCATGGACCGGTTTTCCCGGTAATCCGTATTTGGC (site CCTAATGCTGC) | 0 |
| CCTAATCCATGGACCGGTTTTCCCGGTAATCCGTATTTGGC (site CCTAATTCTGC) | 0 |
| CCTACAACATGGACCGGTTTTCCCGGTAATCCGTATTTGAA (site CCTACAACTTT) | 0.0165 |
| CCTACTACATGGACCGGTTTTCCCGGTAATCCGTATTTGGC (site CCTAATACTGC) | 0 |
| CCTACTACATGGACCGGTTTTCCCGGTAATCCGTATTTGGC (site CCTACTACTGC) | 0 |
| CCTACTACATGGACCGGTTTTCCCGGTAATCCGTATTTGGC (site CCTAGTACTGC) | 0 |
| CCTACTACATGGACCGGTTTTCCCGGTAATCCGTATTTGGC (site CCTATTACTGC) | 0 |
| CCTACTTCATGGACCGGTTTTCCCGGTAATCCGTATTTGAT (site CCTACTTCTAT) | 0 |
| CCTATACCATGGACCGGTTTTCCCGGTAATCCGTATTTGCG (site CCTATACCTCG) | 0.0152 |
| CCTATAGCATGGACCGGTTTTCCCGGTAATCCGTATTTGAT (site CCTAAAGCTAT) | 0 |
| CCTATAGCATGGACCGGTTTTCCCGGTAATCCGTATTTGAT (site CCTACAGCTAT) | 0 |
| CCTATAGCATGGACCGGTTTTCCCGGTAATCCGTATTTGAT (site CCTAGAGCTAT) | 0.0174 |
| CCTATAGCATGGACCGGTTTTCCCGGTAATCCGTATTTGAT (site CCTATAGCTAT) | 0.00747 |
| CCTATTACATGGACCGGTTTTCCCGGTAATCCGTATTTGGC (site CCTAATACTGC) | 0 |
| CCTATTACATGGACCGGTTTTCCCGGTAATCCGTATTTGGC (site CCTACTACTGC) | 0 |

| Sequence | recombinant UMI read abundance (log10) |
| --- | --- |
| CCTATTACATGGACCGGTTTTCCCGGTAATCCGTATTTGGC (site CCTAGTACTGC) | 0 |
| CCTATTACATGGACCGGTTTTCCCGGTAATCCGTATTTGGC (site CCTATTACTGC) | 0 |
| CCTATTTCATGGACCGGTTTTCCCGGTAATCCGTATTTGGC (site CCTATTTCTGC) | 0 |
| CCTATTTCATGGACCGGTTTTCCCGGTAATCCGTATTTGTC (site CCTATTTCTGA) | 0 |
| CCTCCAACATGGACCGGTTTTCCCGGTAATCCGTATTTGTA (site CCTCCAACTTA) | 0.0158 |
| CCTCGGACATGGACCGGTTTTCCCGGTAATCCGTATTTGGG (site CCTCGGACTCC) | 0.0416 |
| CCTCTAGCATGGACCGGTTTTCCCGGTAATCCGTATTTGTA (site CCTCTAGCTTA) | 0.352 |
| CCTGAGACATGGACCGGTTTTCCCGGTAATCCGTATTTGAG (site CCTGAGACTCT) | 0.00693 |
| CCTGGAACATGGACCGGTTTTCCCGGTAATCCGTATTTGTT (site CATGGAACTAA) | 0.0113 |
| CCTGGAACATGGACCGGTTTTCCCGGTAATCCGTATTTGTT (site CCTGGAACTAA) | 0.00583 |
| CCTGGAACATGGACCGGTTTTCCCGGTAATCCGTATTTGTT (site CGTGGAACTAA) | 0.00754 |
| CCTGGAACATGGACCGGTTTTCCCGGTAATCCGTATTTGTT (site CTTGGAACTAA) | 0.00851 |
| CCTGGTGCATGGACCGGTTTTCCCGGTAATCCGTATTTGAT (site CCAGGTGCTAT) | 0.00887 |
| CCTGGTGCATGGACCGGTTTTCCCGGTAATCCGTATTTGAT (site CCCGGTGCTAT) | 0.00946 |
| CCTGGTGCATGGACCGGTTTTCCCGGTAATCCGTATTTGAT (site CCGGGTGCTAT) | 0.00642 |
| CCTGGTGCATGGACCGGTTTTCCCGGTAATCCGTATTTGAT (site CCTGGTGCTAT) | 0.494 |
| CCTGTTCCATGGACCGGTTTTCCCGGTAATCCGTATTTGTC (site CCTGTTCCTGA) | 0 |
